In one data set the test system is HeLa cells. In words: Annexin V-FITC/PI double-staining apoptosis assay by flow cytometry. Format: cell-based, human. Particulars: 24 h, control 1.81%. The text has this:
The ability of RuRe-1 and RuRe-2 to induce apoptosis in HeLa cells was further verified using Annexin V-FITC/PI (FITC: fluorescein isothiocyanate; PI: propidium iodide) double-staining. In the early stage of apoptosis, the surface of the cell membrane is […], at which point the phosphatidylserine on the surface of the apoptotic cell flips from the inner cell membrane to the outer cell membrane, where it can be labelled by Annexin V ([Jan and Chaudhry, 2019]). The membrane permeability of PI is poor and thus only necrotic cells can be labelled ([Zec et al., 2014]).
FIGURE 3 RuRe-1 and RuRe-2 induced HeLa cells apoptosis measured by flow cytometry with Annexin V/PI staining. The incubation time of the compounds was 24 h. […]
A general note: Flow cytometry measures light scatter and fluorescence of single cells or particles in a stream.

Data set [1] concerns A549 (human lung cancer cells). In words: MTT cytotoxicity assay. Format: cell-based. Particulars: 48 h incubation, mean ± SD. The protocol: (§1) The anticancer activities of RuRe-1 and RuRe-2 against four cancer cell lines: HeLa (human cervical cancer cells), HepG2 (human hepatocellular carcinoma), A549 (human lung cancer cells), A549R (cisplatin-resistant A549) and one normal cell line LO2 (human normal liver cells) were determined by 3-(4,5-dimethylthiazole)-2,5-diphenyltetraazolium bromide (MTT) assay, while the mononuclear complexes Ru-1, Ru-2, Re-1 and cisplatin were selected as controls. […] And the in vitro antiproliferative efficacies of the compounds against HeLa cells were in the following order: RuRe-2 > RuRe-1 > Re-1 > cisplatin > Ru-1 > Ru-2. […] The anticancer activity of the mononuclear rhenium complex Re-1 was between 5.6 μM and 8.0 μM, which contributed the most to the antitumor activities of the heteronuclear Ru(II)-Re(Ⅰ) metal complexes.
(§2) Cell lines and culture conditions. HeLa, HepG2, A549, A549R and LO2 cells were purchased from Nanjing KeyGen Biotech., and cultured in DMEM or RPMI 1640 complete medium at 37 ℃ with 5% CO2 atmosphere.
(§3) In vitro cytotoxicity assay. The anti-tumor activity of mononuclear complexes Ru-1, Ru-2, Re-1 and heteronuclear RuRe-1 and RuRe-2 were determined by MTT (5 mg/mL) assay. Cells were placed in 96-well plates and cultured for 24 h at 37 ℃ in a 5% CO2 incubator. After replacing the culture medium with fresh medium containing RuRe-1 or RuRe-2 at the indicated concentration, cells were cultured for 48 h. 20 μL MTT was added to each well 4 h before the end of the incubation. Subsequently, the liquid in the cell wells was poured out and 150 μL/well DMSO was added to dissolve the MTT-formazan crystals. The absorbance of living cells at 570 nm was detected.
In general terms: Tetrazolium assays rely on reduction of a dye to a coloured formazan, in cell work by metabolically active cells.

Data set [2] concerns HeLa (human cervical cancer cells). The data set can be described thus: MTT cytotoxicity assay. The data set is classed as cell-based. Particulars: 48 h incubation, mean ± SD. The protocol:
as §1, §2, §3

Data set [3] deals with LO2 (human normal liver cells). In words: MTT cytotoxicity assay. Format: cell-based. Particulars: 48 h incubation, mean ± SD. On the procedure:
as §1, §2, §3

In data set [4] the test system is HepG2 (human hepatocellular carcinoma). The data set can be described thus: MTT cytotoxicity assay. The data set is classed as cell-based. Particulars: 48 h incubation, mean ± SD. The protocol: as §1, §2, §3
Data set [5] is described as follows: n-octanol/water partition coefficient by shaking flask method. Format: physicochemical. The text has this:
Drugs exert their effects through pharmacokinetic processes such as absorption, distribution, and metabolism, which are closely related to the n-octanol/water partition coefficient of the drug (log P o/w) ([Choi et al., 2012]).

One may read the IC50 as the midpoint of a concentration-inhibition curve. Read a high IC50 as weaker potency in that assay.

Consider `F[P-](F)(F)(F)(F)F.F[P-](F)(F)(F)(F)F.F[P-](F)(F)(F)(F)F.[C-]#[O+].[C-]#[O+].[C-]#[O+].[Re+].[Ru+2].c1ccc(-c2ccccn2)nc1.c1ccc(-c2ccccn2)nc1.c1ccc(-c2ccnc3c2ccc2c(-c4ccccc4)ccnc23)cc1.c1cnc2c(c1)c1nc(-c3ccncc3)[nH]c1c1cccnc12` [RuRe-1, [Ru(bpy)2LRe(CO)3(DIP)](PF6)3], for which, in the data set on HeLa cells (12.4 μM), the “percentage of apoptotic cells (early apoptotic + late apoptotic)” value was 22.38%. The IC50 in data set [1] turned out to be 11.8 ± 0.4 µM; in data set [2] it was 3.1 ± 0.8 µM; in data set [3] it was 25.1 ± 0.7 µM; in data set [4] it was 10 ± 0.8 µM. Further, the “log P o/w” value in data set [5] is on record as 0.47.
Regarding `F[P-](F)(F)(F)(F)F.F[P-](F)(F)(F)(F)F.F[P-](F)(F)(F)(F)F.[C-]#[O+].[C-]#[O+].[C-]#[O+].[Re+].[Ru+2].c1ccc(-c2ccnc3c2ccc2c(-c4ccccc4)ccnc23)cc1.c1cnc2c(c1)c1nc(-c3ccncc3)[nH]c1c1cccnc12.c1cnc2c(c1)ccc1cccnc12.c1cnc2c(c1)ccc1cccnc12` [RuRe-2, [Ru(phen)2LRe(CO)3(DIP)](PF6)3], the “percentage of apoptotic cells (early apoptotic + late apoptotic)” value with HeLa cells (10.0 μM) is reported as 22.26%. For the same compound, the half-maximal inhibitory concentration (IC50) in data set [1] worked out at 11.2 ± 0.9 µM; in data set [2] it was 2.5 ± 1.3 µM; in data set [3] it was 28.1 ± 1.1 µM; in data set [4] it was 12.5 ± 0.9 µM. The “log P o/w” value in data set [5] is 2.10.

The values are drawn from article PMC9196629, “Synthesis, Characterization and Antitumor Mechanism Investigation of Heterometallic Ru(Ⅱ)-Re(Ⅰ) Complexes” (Frontiers in Chemistry, 2022).
